Measured values as given in US8703424B2, “Predicting human developmental toxicity of pharmaceuticals using human stem-like cells and metabolomics” (Stemina Biomarker Discovery, Inc., priority 2010, dated 2014).

How the values were obtained:
[1] = tested on: WA09 human embryonic stem (hES) cells; test: PLS-DA prediction of teratogenicity from secretome of treated hES cells (Example 9); settings: DevTox pharmaceutical
Description: These included 11 known teratogens and 11 known non-teratogens. The current model is based on the mean fold change (treatment versus its associated intra-experimental control) of 15 metabolites common among the secretome of hES cells treated with pharmaceutical agents and unknown chemical compounds.

WA09 hESCs [2] = test: LC-MS metabolomics: abundance changes of metabolites in hESCs dosed at circulating dose; type: cell-based, human
Protocol: (§1) These medium controls provided baseline mass spectral data.
(§2) The 2.5 mL of spent media per well from Example 1 was added to 1.67 mL acetonitrile to make a 40% acetonitrile solution. The acetonitrile acts to “quench” the spent media sample, slowing or halting many metabolic processes and aiding in precipitation of cellular proteins. Samples were either stored at −80° C. for later analysis, or for immediate analysis, 250 μL of the quenched solution was mixed with 250 μL of water, to a final concentration of 20% acetonitrile, then added to a 3 kDa molecular weight cut-off filter spin column (Microcon YM-3 Centrifugal Filter, Millipore, Billerica, Mass.). Each sample was then centrifuged in an IEC CL31R Multispeed Centrifuge (Thermo Scientific, Waltham, Mass.) at 13,000×g at 4° C. for 200 minutes. Following centrifugation, the flow-through was saved then dried for several hours in a Savant High Capacity Speedvac Plus Concentrator. The concentrated sample was then dissolved in 50 μL of 0.1% formic acid prior to LC-MS analysis.
(§3) 5 μl of each sample was injected.
(§4) Following LC-MS, chromatograms were inspected for reproducibility. LC-MS runs with total ion counts that vary by more than 25% were repeated to ensure that samples could be accurately compared. These runs were then used to create mass features that correspond to molecules detected across the different LC-MS runs. Mass features were extracted from the LC-MS data using MassHunter Qualitative Analysis software (Agilent Technologies). The following criteria were used as general guidelines, however some flexibility and optimization was needed. m/z values within the range of 75-1500, with a charge of +1 or −1, and a centroid height greater than 1000 were used to generate “mass features.” The mass peaks that pass these criteria were used to fit isotope and adduct (Na^+, K^+, and NH4^+) patterns corresponding to individual molecules, and to establish the abundance of each mass feature. The abundance is calculated by MassHunter software as the sum of the isotopic and adduct peaks that correspond to a single molecular feature. After data deconvolution, mass features showing at least two ions (e.g. (M^+H)^+ and (M^+H)^++1 or (M^+H)^+ and (M^+Na)^+) and an abundance value greater than 50000 for positive-ion mode data and 10000 in negative-ion mode data were included in the data set used for binning of the mass features.
The media represents a major factor in the experimental system, in that it contributes many peaks to mass spectra. This can be accounted for in a data dependent manner to select for mass feature bins, which are present at significant levels above the media. Mass feature bins present solely in the presence of cells (not detected in media) or with average abundance levels different than uncultured media were considered to be secreted, excreted, consumed, or identified metabolites.
The exact mass of the metabolite must be within 10 ppm of the known mass of the compound. 2) The retention time of the metabolite detected in the cell media must be within + or −30 seconds of a reference standard on which MS data had been acquired under the same conditions. The reference standards were dissolved in mTeSR media and prepared in exactly the same manner (described above) as the samples from the cells, including the addition of acetonitrile, Centricon centrifugal filtration, drying then dissolution in formic acid prior to LC-MS analysis. 3) The MS-MS fragmentation spectra of the metabolite detected in the cell media must be a reasonable match with that of the reference standard, including abundances and m/z values of the fragment ions. If published MS-MS spectra are available, the MS-MS spectra must also be a reasonable match.

hESCs = test: Arginine / ADMA fold change ratio (integrated EICs) in dosed hESCs vs controls; settings: for Arg fold change/ADMA fold change: EIC areas, controls vs. dosed
Protocol: All tested chemicals were purchased from Sigma-Aldrich (St. Louis, Mo.). Cells were dosed with drugs at a concentration equivalent to their published serum circulating therapeutic dosages. Dosing was performed on hESCs in 6-well plates in triplicate, i.e. three wells per plate. The plates were dosed in triplicate, so there were a total of nine dosed wells. In parallel, there were nine “control” wells, in which hESCs were cultured with mTeSR1 containing no drug, and three wells containing Matrigel with mTeSR1 medium without hESCs that served as medium controls. Lastly, three wells of dosed medium controls were prepared, containing Matrigel, mTeSR1 and drug, but no hESCs (FIG. 1). These medium controls provided baseline mass spectral data. On the first day of dosage, the determined concentration of drug was dissolved in mTeSR1, and then 2.5 mL of this solution was added to each dosed well of hESCs. Each day, for four days, the medium was removed and new dosed medium was added. On the fourth day, the medium was removed and added to acetonitrile to make a 40% acetonitrile solution, as outlined in the Sample Preparation section below.
Mass spectrometry was performed using an Agilent QTOF LC/MS system consisting of a G6520AA QTOF high resolution mass spectrometer capable of exact mass MS and MS/MS. In order to facilitate separation of small molecules with a wide range of polarity and to allow increased retention of hydrophilic species, Hydrophilic Interaction Liquid Chromatography (Alpert 1990) was employed. Each sample was run for 30 minutes with the gradient shown in Table 3 at a flow rate of 0.5 mL/min, using 0.1% formic acid in water (Solvent A) and 0.1% formic acid in acetonitrile (Solvent B). Electrospray ionization was employed using a dual ESI source, with an Agilent isocratic pump continuously delivering an internal mass reference solution into the source at approx. 0.01 mL/min. The mass range of the instrument was set to 100-1700 Da. A Phenomenex Luna HILIC column with dimensions 3×100 mm 3 μm particle size was used and maintained at 30° C. 5 μl of each sample was injected. Data acquisition was performed with Agilent MassHunter using high-resolution exact mass conditions.
Valproate is known to cause neural tube defects (DiLiberti et al. 1984) while nitric oxide synthase activity is essential for neural tube closure (Nachmany et al. 2006).

WA09 hESCs [3] = test: Random forest prediction of teratogenicity from metabolomics of spent media of dosed hESCs; type: cell-based, human; settings: for Predicted teratogenicity (random forest statistical model): blind study, model trained on TS1, 142 mass features, circulating dose
Protocol: WA09 hESCs, obtained from WiCell Research Institute (NIH National Stem Cell Bank, Madison, Wis.) were cultured in 6-well plates on Matrigel (BD Biosciences, San Jose, Calif.), in mTeSR1 medium (Stem Cell Technologies, Vancouver, BC) incubated at 37° C. under 5% CO2 in a Thermo Electron Form a Series II Water Jacket CO2 Incubator. hESCs were passaged every three or four days at a 1:3 or 1:6 seeding density for routine culture conditions. For dosing experiments, hESCs were passaged at a low density of 1:10 or 1:12 so that they would not require passaging during the […] dosing protocol. To passage hES cells, the StemPro® EZPassage™ disposable stem cell passaging tool (Invitrogen, Carlsbad, Calif.) was used to detach the cells from the wells. Detached cells were removed with a pipette and distributed to new Matrigel plates.
as §1, §2, §3, §4
Following feature selection by MassHunter, the data was further preprocessed by MassProfiler (Agilent) software which aligns mass features across multiple LC-MS data files. Mass features were generated for data from each drug treatment experiment (dosed and control) using the default alignment settings in MassProfiler with the requirement that a feature be present in at least 80% of the samples in one treatment. The mass feature datasets for each drug treatment experiment were further processed in a global manner using custom analysis scripts executed in the R statistical software environment. […]

[4] = high dose (H = 10x circulating dose)
[5] = low dose (L = 0.1x circulating dose)

| Arg/ADMA Prediction (hESCs) | Compound | % Non (PLS-DA class probability non-teratogen) [1, 4] | % Ter (PLS-DA class probability teratogen) [1, 4] | Confidence (difference between class probabilities) [1, 4] | Prediction [1, 4] | % Non (PLS-DA class probability non-teratogen) [1, 5] | % Ter (PLS-DA class probability teratogen) [1, 5] | Confidence (difference between class probabilities) [1, 5] | Prediction [1, 5] | Changes in metabolites on dosing (WA09 hESCs [2]) | Abundance of succinic acid (WA09 hESCs [2]; drug-treated vs control) | Arg fold change/ADMA fold change (hESCs) | Concentration of GABA in the secretome of hESCs (WA09 hESCs [2]; dosed hESCs) | Predicted teratogenicity (random forest statistical model) (WA09 hESCs [3]) | Classification by the refined random forest model (FIG. 3) (WA09 hESCs [3]; 18-feature model, 26 drug treatment experiments) | Abundance of asymmetric dimethylarginine (ADMA) (WA09 hESCs [2]; drug-treated vs control) |
| --- | --- | --- | --- | --- | --- | --- | --- | --- | --- | --- | --- | --- | --- | --- | --- | --- |
| Ter | O=c1[nH]cc(F)c(=O)[nH]1 [5-Fluorouracil] | 0.32 | 0.68 | 0.36 | Ter | 0.28 | 0.72 | 0.44 | Ter | most profound changes in many metabolites | significant down regulation | 43.93 |  |  |  |  |
| Ter | CS(=O)(=O)OCCCCOS(C)(=O)=O [Busulfan] | 0.28 | 0.72 | 0.44 | Ter | 0.29 | 0.71 | 0.42 | Ter |  |  | 1.12 | Increased concentrations |  |  |  |
| Ter | NC(=O)N1c2ccccc2C=Cc2ccccc21 [Carbamazepine] | 0.37 | 0.63 | 0.26 | Ter | 0.5 | 0.5 | 0 | Non |  | significant down regulation | 1.12 |  | Ter |  |  |
| Ter | NC(=O)NO [Hydroxyurea] | 0.32 | 0.68 | 0.36 | Ter | 0.64 | 0.36 | 0.28 | Non |  | significant down regulation | 2.52 |  |  |  |  |
| Ter | CN(Cc1cnc2nc(N)nc(N)c2n1)c1ccc(C(=O)N[C@@H](CCC(=O)O)C(=O)O)cc1 [Methotrexate] | 0.42 | 0.58 | 0.16 | Ter | 0.48 | 0.52 | 0.04 | Ter |  | significant down regulation | 2.54 |  |  |  |  |
| Ter | CO[C@H]1/C=C/O[C@@]2(C)Oc3c(C)c(O)c4c(O)c(c(/C=N/N5CCN(C)CC5)c(O)c4c3C2=O)NC(=O)/C(C)=C\C=C\[C@H](C)[C@H](O)[C@@H](C)[C@@H](O)[C@@H](C)[C@H](OC(C)=O)[C@@H]1C [Rifampicin] | 0.27 | 0.73 | 0.46 | Ter | 0.46 | 0.54 | 0.08 | Ter |  |  | 0.81 |  | Ter | misclassified as non-teratogens |  |
| Ter | CCCC(CCC)C(=O)O [Valproic Acid] |  |  |  |  |  |  |  |  |  | significant down regulation | 2.11 |  |  |  | significant fold decrease |

| Compound | Arg/ADMA Prediction (hESCs) | % Non (PLS-DA class probability non-teratogen) [1, 4] | % Ter (PLS-DA class probability teratogen) [1, 4] | Confidence (difference between class probabilities) [1, 4] | Prediction [1, 4] | % Non (PLS-DA class probability non-teratogen) [1, 5] | % Ter (PLS-DA class probability teratogen) [1, 5] | Confidence (difference between class probabilities) [1, 5] | Prediction [1, 5] | Changes in metabolites on dosing (WA09 hESCs [2]) | Abundance of succinic acid (WA09 hESCs [2]; drug-treated vs control) | Arg fold change/ADMA fold change (hESCs) | Concentration of GABA in the secretome of hESCs (WA09 hESCs [2]; dosed hESCs) | Predicted teratogenicity (random forest statistical model) (WA09 hESCs [3]) | Classification by the refined random forest model (FIG. 3) (WA09 hESCs [3]; 18-feature model, 26 drug treatment experiments) | Abundance of asymmetric dimethylarginine (ADMA) (WA09 hESCs [2]; drug-treated vs control) |
| --- | --- | --- | --- | --- | --- | --- | --- | --- | --- | --- | --- | --- | --- | --- | --- | --- |
| Nc1ccn([C@@H]2O[C@H](CO)[C@@H](O)[C@@H]2O)c(=O)n1 [Cytosine Arabinoside] | Ter |  |  |  |  |  |  |  |  | most profound changes in many metabolites | significant down regulation | 67.01 |  |  |  |  |
